# Measured values as given in patent publication US10004751B2, “Compositions and methods for treating Dengue virus infection” (The J. David Gladstone Institutes, priority 2014, dated 2018).
# Tested on: DENV
# Test: DENV replication in Huh7 cells treated with ARFGAP1 inhibitor
# Type: cell-based, Dengue virus
# Conditions: DENV MOI of 0.5, increasing concentrations, 24 hours post-infection
# Experimental: Human hepatoma Huh7 cells were infected with DENV (MOI of 0.5) and treated with increasing concentrations of QS 11. Viral RNA synthesis, DENV capsid protein levels, and infectious virion production were measured at 24 hours post-infection.
smiles,measurement,setting,value
OC[C@H](Cc1ccccc1)Nc1nc(Oc2ccc3c(c2)CCC3)nc2c1ncn2Cc1ccc(-c2ccccc2)cc1 [QS 11],Viral RNA synthesis,FIG. 6A,reduced viral RNA synthesis
same,DENV capsid protein levels,FIG. 6B,reduced
same,Infectious virion production,FIG. 6C,reduced
